Assay results taken from PMC8398451, “Molecular Engineering of Curcumin, an Active Constituent of Curcuma longa L. (Turmeric) of the Family Zingiberaceae with Improved Antiproliferative Activity” (Plants, 2021).
Like-named read-outs stand apart in the source and are kept apart here.

Experiments:
[1] = tested on: T-47D; assay: NCI antiproliferative SRB assay, Breast Cancer panel; type: cell-based, Human
[2] = tested on: SF-295; assay: NCI antiproliferative SRB assay, CNS Cancer panel; type: cell-based, Human
[3] = tested on: K-562; assay: NCI antiproliferative SRB assay, Leukemia panel; type: cell-based, Human
[4] = tested on: SK-MEL-2; assay: NCI antiproliferative SRB assay, Melanoma panel; type: cell-based, Human
[5] = tested on: PC-3; assay: NCI antiproliferative SRB assay, Prostate Cancer panel; type: cell-based, Human
[6] = tested on: SW-620; assay: NCI antiproliferative SRB assay, Colon Cancer panel; type: cell-based, Human
[7] = tested on: MDA-MB-468; assay: NCI antiproliferative SRB assay, Breast Cancer panel; type: cell-based, Human
Method: The antiproliferative activity of tested compounds was done against five dozen (60) cancer cell lines derived from nine different panels. All of the compounds were evaluated for antiproliferative activity in a single dose at 10 µM. Growth percent (GP) and percent growth inhibition (% GI) were used to calculate antiproliferative activity. […] The antiproliferative results of five-dose assay were calculated as three dose related parameters like, 50% growth inhibition (GI50), 50% lethal concentration (LC50), and total growth inhibition TGI [43, 44, 45, 46, 47].
Human tumor cell lines were grown in RPMI 1640 medium containing 5% fetal bovine serum and 2 mM L-glutamine. For a typical screening experiment, cells were inoculated into 96-well microtiter plates in 100 µL at plating densities ranging from 5000 to 40,000 cells/well, depending on the doubling time of individual cell lines. Two plates of each cell line were fixed in situ with trichloroacetic acid (TCA) after 24 h to represent a cell population measurement for each cell line at the time of drug addition (Ti). The experimental drugs were frozen after being solubilized in dimethyl sulfoxide at 400-fold the desired final maximum test concentration. An aliquot of frozen concentrate was thawed and diluted to twice the desired final maximum test concentration with medium containing 50 µg/mL gentamicin at the time of drug addition. Additional four, 10-fold, or ½ log serial dilutions serial dilutions were performed to provide a total of five drug concentrations plus the control. Aliquots of 100 µL of these different drug dilutions were added to the appropriate microtiter wells already containing 100 µL of medium, resulting in the required final drug concentrations. Following drug addition, the plates are incubated for an additional 48 h at 37 °C, 5% CO2, 95% air, and 100% relative humidity. For adherent cells, the assay is terminated by the addition of cold TCA. Cells are fixed in situ by the gentle addition of 50 µL of cold 50% (w/v) TCA (final concentration, 10% TCA) and incubated for 60 min at 4 °C. The supernatant is discarded, and the plates are washed five times with tap water and air dried. Sulforhodamine B (SRB) solution (100 µL) at 0.4% (w/v) in 1% acetic acid was added to each well, and plates were incubated for 10 min at room temperature. After staining, unbound dye was removed by washing five times with 1% acetic acid and the plates were air dried. Bound stain was subsequently solubilized with 10 mM trizma base, and the absorbance was read on an automated plate reader at a wavelength of 515 nm. For suspension cells, the methodology was the same except that the assay was terminated by fixing settled cells at the bottom of the wells by gently adding 50 µL of 80% TCA (final concentration, 16% TCA). […]
Antiproliferative activity
The anticancer screening was carried ou t as per the NCI US protocol. Using the seven absorbance measurements (time zero, (Ti), control growth, (C), and test growth in the presence of drug at the five concentration levels (Tf)), the percentage growth was calculated at each of the drug concentrations level as [( Tf−Ti × 100 for concentrations for which Tf ≥ Ti, and Tf−Ti × 100 for […]
concentrations for which Tf < Ti.
Three-dose response parameters (GI50, TGI, and LC50) were calculated for each of the experimental agents. Growth inhibition of 50% (GI50) was calculated from 100 × Tf−Ti = 50, , which was […]
the drug concentration resulting in a 50% reduction in the net protein increase (as measured by sulforhodamine B, SRB staining) in control cells during the drug incubation. The total growth inhibition (TGI) was calculated from Tf = Ti, which was the drug concentration resulting in total growth inhibition and signified the cytostatic effect. The LC50 was calculated from 100 × Tf−Ti = −50, , indicating a net loss […]
of cells following treatment which indicated the concentration of drug resulting in a 50% reduction in the […]

[8] = tested on: Melanoma cell line panel; assay: NCI antiproliferative assay, panel summary; type: cell-based, Human
[9] = tested on: IGROV1; assay: NCI antiproliferative SRB assay, Ovarian Cancer panel; type: cell-based, Human
[10] = tested on: SNB-19; assay: NCI antiproliferative SRB assay, CNS Cancer panel; type: cell-based, Human
[11] = tested on: U251; assay: NCI antiproliferative SRB assay, CNS Cancer panel; type: cell-based
[12] = tested on: 60 NCI cancer cell lines; assay: NCI antiproliferative assay, summary over all lines; type: cell-based
[13] = tested on: KM12; assay: NCI antiproliferative SRB assay, Colon Cancer panel; type: cell-based, Human
[14] = tested on: SK-MEL-5; assay: NCI antiproliferative SRB assay, Melanoma panel; type: cell-based, Human
[15] = tested on: SF-268; assay: NCI antiproliferative SRB assay, CNS Cancer panel; type: cell-based, Human
[16] = Homo sapiens, T47D, 5-dose 0.01-100 µM
[17] = Homo sapiens, 5-dose 0.01-100 µM
[18] = Homo sapiens, 5-dose 0.01-100 µM, read-out: LC50 (the source's name)
[19] = mean over cell lines, one dose 10 µM

COc1ccc(NC(=O)n2nc(/C=C/c3ccc(O)c(OC)c3)cc2/C=C/c2ccc(O)c(OC)c2)cc1 [3b]
TGI ([1]; 5-dose 0.01-100 µM): 25.8 µM | GI50 [1, 16]: 3.68 µM | LC50 (lethal concentration, 50% cell kill) [1, 16]: > 100 µM | %GI ([1]; one dose 10 µM): 65.17% | GP (growth percent) ([1]; one dose 10 µM): 34.83 | TGI ([2]; 5-dose 0.01-100 µM): 53.2 µM | GI50 [2, 17]: 6.25 µM | CC50 [2, 18]: > 100 µM | %GI ([2]; one dose 10 µM): 48.38% | GP (growth percent) ([2]; one dose 10 µM): 51.62 | TGI ([3]; 5-dose 0.01-100 µM): 16.9 µM | GI50 ([3]; Homo sapiens, K562, 5-dose 0.01-100 µM): 2.87 µM | CC50 ([3]; Homo sapiens, K562, 5-dose 0.01-100 µM, read-out: LC50 (the source's name)): > 100 µM | %GI ([3]; one dose 10 µM): 90.75% | GP (growth percent) ([3]; one dose 10 µM): 9.25 | TGI ([4]; 5-dose 0.01-100 µM): 18.1 µM | GI50 [4, 17]: 3.23 µM | CC50 [4, 18]: > 100 µM | %GI ([4]; one dose 10 µM): 78.62% | GP (growth percent) ([4]; one dose 10 µM): 21.38 | TGI ([5]; 5-dose 0.01-100 µM): >100 µM | GI50 [5, 17]: 5.11 µM | CC50 [5, 18]: > 100 µM | %GI ([5]; one dose 10 µM): 71.57% | GP (growth percent) ([5]; one dose 10 µM): 28.43 | TGI ([6]; 5-dose 0.01-100 µM): 61.6 µM | GI50 [6, 17]: 5.51 µM | CC50 [6, 18]: > 100 µM | %GI ([6]; one dose 10 µM): 72.90% | GP (growth percent) ([6]; one dose 10 µM): 27.10 | LC50 (50% lethal concentration) ([7]; Homo sapiens, MDA-MB-468, read-out: LC50): > 100 µM | GI50 ([7]; Homo sapiens, MDA-MB-468, 5-dose 0.01-100 µM): 3.55 µM | TGI ([7]; MDA-MB-468, 5-dose 0.01-100 µM): 21.6 µM | %GI ([7]; MDA-MB-468, one dose 10 µM): 65.32% | GP (growth percent) ([7]; MDA-MB-468, one dose 10 µM): 34.68 | Mean % GI ([8]; 10 µM): 76.24% | Selectivity Ratio (MID a:MID b) ([8]; 5-dose assay): 1.06 | GI50 ([8]; Homo sapiens, 5-dose assay, read-out: Sub Panel MID b (mean GI50 of panel)): 4.59 µM | TGI ([9]; 5-dose 0.01-100 µM): 57.0 µM | GI50 ([9]; Homo sapiens, IGROV-1, 5-dose 0.01-100 µM): 4.49 µM | CC50 ([9]; Homo sapiens, IGROV-1, 5-dose 0.01-100 µM, read-out: LC50 (the source's name)): > 100 µM | %GI ([9]; one dose 10 µM): 65.61% | GP (growth percent) ([9]; one dose 10 µM): 34.39 | TGI ([10]; 5-dose 0.01-100 µM): 86.7 µM | GI50 [10, 17]: 5.28 µM | CC50 [10, 18]: > 100 µM | %GI ([10]; one dose 10 µM): 61.15% | GP (growth percent) ([10]; one dose 10 µM): 38.85 | GI50 ([11]; Homo sapiens, U-251): 3.55 µM | CC50 ([11]; Homo sapiens, U-251, U251, 5-dose 0.01-100 µM, read-out: LC50 (the source's name)): > 100 µM | TGI ([11]; U251, 5-dose 0.01-100 µM): 20.9 µM | %GI ([11]; U251, one dose 10 µM): 73.97% | GP (growth percent) ([11]; U251, one dose 10 µM): 26.03 | GI50 ([12]; Homo sapiens, read-out: GI50 values, range over cell lines): 1.25 to 18.8 µM | CC50 ([12]; Homo sapiens, 5-dose assay, read-out: LC50 over cell lines): > 100 µM | GI50 ([12]; Homo sapiens, 5-dose assay, read-out: MID a (mean GI50 of 60 NCI cancer cell lines)): 4.89 µM | Mean % GI [12, 19]: 66.46% | Mean GP [12, 19]: 33.54 | TGI ([13]; 5-dose 0.01-100 µM): 20.7 µM | GI50 [13, 17]: 3.19 µM | CC50 [13, 18]: > 100 µM | %GI ([13]; one dose 10 µM): 82.11% | GP (growth percent) ([13]; one dose 10 µM): 17.89 | TGI ([14]; 5-dose 0.01-100 µM): 16.1 µM | GI50 [14, 17]: 3.67 µM | CC50 [14, 18]: > 100 µM | %GI ([14]; one dose 10 µM): 90.96% | GP (growth percent) ([14]; one dose 10 µM): 9.04 | TGI ([15]; 5-dose 0.01-100 µM): 36.4 µM | GI50 [15, 17]: 3.21 µM | CC50 [15, 18]: > 100 µM | %GI ([15]; one dose 10 µM): 58.19% | GP (growth percent) ([15]; one dose 10 µM): 41.81
